Assay results reported in patent US20260206755A1, “COMPOUNDS AND COMPOSITIONS HAVING KNOCK-DOWN OR BLOOD FEED INHIBITION ACTIVITY AGAINST INSECT PESTS” (priority 2017, published 2026).
Like-named read-outs stand apart in the source and are kept apart here.

Test system: Anopheles stephensi
Experiment: Anopheles stephensi treated well plate contact test: knockdown and mortality
Type: in vivo
Details: for mortality at 0.2 ppm / pest or weed control at 0.2 ppm / mortality at 2 ppm / pest or weed control at 2 ppm / mortality at 20 ppm / pest or weed control at 20 ppm / mortality at 200 ppm / pest or weed control at 200 ppm: Anopheles stephensi; for mortality at 0.2 ppm / pest or weed control at 0.2 ppm: test compound 0.2 ppm; for pest or weed control at 0.2 ppm / pest or weed control at 2 ppm / pest or weed control at 20 ppm / pest or weed control at 200 ppm: read-out: Knock Down, without TFNA-AM; for mortality at 20 ppm / pest or weed control at 20 ppm: test compound 20 ppm; for mortality at 200 ppm / pest or weed control at 200 ppm: test compound 200 ppm; for pest or weed control at 200 ppm: adult females
In short: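 Well surfaces coated with ethanol solution of compound at a defined concentration, alone or with 2 ppm TFNA-AM, then dried. Five non-blood-fed 2–5-day-old adult females per well, fed 10% sucrose; knockdown scored at 1 hour, mortality at 24 and 48 hours, replicate means reported.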

[1] = without TFNA-AM, after 24 hours, read-out: mortality % 24, without TFNA-AM
[2] = without TFNA-AM, after 48 hours, read-out: mortality % 48, without TFNA-AM
[3] = without TFNA-AM, knockdown after 1 hour
[4] = test compound 2 ppm, without TFNA-AM, after 24 hours, read-out: mortality % 24, without TFNA-AM
[5] = test compound 2 ppm, without TFNA-AM, after 48 hours, read-out: mortality % 48, without TFNA-AM
[6] = test compound 2 ppm, without TFNA-AM, knockdown after 1 hour
[7] = test compound 0.2 ppm plus 2 ppm TFNA-AM, after 24 hours
[8] = test compound 0.2 ppm plus 2 ppm TFNA-AM, after 48 hours
[9] = test compound 0.2 ppm plus 2 ppm TFNA-AM, knockdown after 1 hour
[10] = test compound 2 ppm plus 2 ppm TFNA-AM, after 24 hours
[11] = test compound 2 ppm plus 2 ppm TFNA-AM, knockdown after 1 hour
[12] = test compound 20 ppm plus 2 ppm TFNA-AM, after 24 hours
[13] = test compound 20 ppm plus 2 ppm TFNA-AM, after 48 hours
[14] = test compound 20 ppm plus 2 ppm TFNA-AM, knockdown after 1 hour
[15] = test compound 200 ppm plus 2 ppm TFNA-AM, after 24 hours
[16] = test compound 200 ppm plus 2 ppm TFNA-AM, after 48 hours
[17] = test compound 200 ppm plus 2 ppm TFNA-AM, knockdown after 1 hour

SMILES	mortality at 0.2 ppm [1] [%]	mortality at 0.2 ppm [2] [%]	pest or weed control at 0.2 ppm [3] [%]	mortality at 2 ppm [4] [%]	mortality at 2 ppm [5] [%]	pest or weed control at 2 ppm [6] [%]	mortality at 20 ppm [1] [%]	mortality at 20 ppm [2] [%]	pest or weed control at 20 ppm [3] [%]	mortality at 200 ppm [1] [%]	mortality at 200 ppm [2] [%]	pest or weed control at 200 ppm [3] [%]	mortality % 24, with TFNA-AM [7] [%]	mortality % 48, with TFNA-AM [8] [%]	Knock Down, with TFNA-AM [9] [%]	Knock Down, with TFNA-AM [11] [%]	Knock Down, with TFNA-AM [14] [%]	mortality % 24, with TFNA-AM [15] [%]	mortality % 48, with TFNA-AM [16] [%]	Knock Down, with TFNA-AM [17] [%]	other results
CC(COc1ccc(Oc2ccccc2)cc1)Oc1ccccn1 (stereo not shown) [Pyriproxyfen]	0	0	0	0	0	0	0	0	0	0	0	0	60	60	100	100	100	80	80	100	mortality % 24, with TFNA-AM [10]: 60%; mortality % 48, with TFNA-AM (test compound 2 ppm plus 2 ppm TFNA-AM, after 48 hours): 60%; mortality % 24, with TFNA-AM [12]: 60%; mortality % 48, with TFNA-AM [13]: 60%
CC(c1ccc(C(F)(F)F)nc1)S(C)(=O)=NC#N (stereo not shown) [Sulfoxaflor]	0	30	0	0	60	0	70	80	0	80	100	20	0	20	100	100	100	90	100	100	mortality % 48, with TFNA-AM [13]: 90%
NC(=O)c1cnccc1C(F)(F)F [TFNA-AM, 4-(trifluoromethyl)pyridine-3-carboxamide]	–	–	–	–	–	–	–	–	–	–	–	–	–	–	–	–	–	–	–	–	mortality at 2 ppm (TFNA-AM 2 ppm alone, after 24 hours, read-out: mortality % 24, TFNA-AM alone): 18.3%; mortality at 2 ppm (TFNA-AM 2 ppm alone, after 48 hours, read-out: mortality % 48, TFNA-AM alone): 11.7%; Knock Down, TFNA-AM alone (TFNA-AM 2 ppm alone, knockdown after 1 hour): 75.5%
CCc1nn(C)c(C(=O)NCc2ccc(C(C)(C)C)cc2)c1Cl [Tebufenpyrad]	0	0	0	0	0	0	13	20	0	73	67	0	0	0	93	93	93	100	100	93	mortality % 24, with TFNA-AM [10]: 27%; mortality % 24, with TFNA-AM [12]: 80%
